In ChEMBL document CHEMBL4359915, “Design, synthesis and biological evaluation of novel diazaspiro[4.5]decan-1-one derivatives as potential chitin synthase inhibitors and antifungal agents” (Eur J Med Chem, 2019):
≈ marks a conversion by molar mass, not a printed value.

How the values were obtained:
Candida albicans [1] = assay: Antifungal activity against Candida albicans ATCC 90023 assessed as growth inhibition measured after 24 hrs by two-fold broth dilution method; assay type: functional; conditions: ATCC 90023, 24 h
Cryptococcus neoformans [2] = assay: Antifungal activity against Cryptococcus neoformans ATCC 32719 assessed as growth inhibition measured after 24 hrs by two-fold broth dilution method; assay type: functional; conditions: ATCC 32719, 24 h
Pseudomonas aeruginosa = assay: Antibacterial activity against Pseudomonas aeruginosa ATCC 9027 assessed as growth inhibition measured after 24 hrs by two-fold broth dilution method; assay type: functional; conditions: ATCC 9027, 24 h
Staphylococcus aureus [3] = assay: Antibacterial activity against methicillin-resistant Staphylococcus aureus N315 assessed as growth inhibition measured after 24 hrs by two-fold broth dilution method; assay type: functional; conditions: N315, 24 h
Escherichia coli = assay: Antibacterial activity against Escherichia coli JM 109 assessed as growth inhibition measured after 24 hrs by two-fold broth dilution method; assay type: functional; conditions: JM 109, 24 h
Aspergillus flavus [4] = assay: Antifungal activity against Aspergillus flavus ATCC 16870 assessed as growth inhibition measured after 24 hrs by two-fold broth dilution method; assay type: functional; conditions: ATCC 16870, 24 h
Bacillus spizizenii = assay: Antibacterial activity against Bacillus subtilis ATCC 6633 assessed as growth inhibition measured after 24 hrs by two-fold broth dilution method; assay type: functional; conditions: ATCC 6633, 24 h
Staphylococcus aureus [5] = assay: Antibacterial activity against Staphylococcus aureus ATCC 25923 assessed as growth inhibition measured after 24 hrs by two-fold broth dilution method; assay type: functional; conditions: ATCC 25923, 24 h
Candida albicans [6] = assay: Antifungal activity against Candida albicans ATCC 76615 assessed as growth inhibition measured after 24 hrs by two-fold broth dilution method; assay type: functional; conditions: ATCC 76615, 24 h
Proteus vulgaris = assay: Antibacterial activity against Bacillus proteus ATCC 8427 assessed as growth inhibition measured after 24 hrs by two-fold broth dilution method; assay type: functional; conditions: ATCC 8427, 24 h
Aspergillus fumigatus [7] = assay: Antifungal activity against Aspergillus fumigatus GIMCC 3.19 assessed as growth inhibition measured after 24 hrs by two-fold broth dilution method; assay type: functional; conditions: GIMCC 3.19, 24 h
Candida tropicalis = assay: Inhibition of Candida tropicalis ATCC 750 chitin synthase at 300 ug/ml using UDP-GlcNAc as substrate relative to control
Aspergillus fumigatus [8] = assay: Antifungal activity against Aspergillus fumigatus GIMCC 3.19 assessed as fractional inhibitory concentration index after 24 hrs in presence of fluconazole by two-dimensional broth microdilution checkboard assay; assay type: functional
Candida albicans [9] = assay: Antifungal activity against Candida albicans ATCC 76615 assessed as fractional inhibitory concentration index after 24 hrs in presence of fluconazole by two-dimensional broth microdilution checkboard assay; assay type: functional
Aspergillus flavus [10] = assay: Antifungal activity against Aspergillus flavus ATCC 16870 assessed as fractional inhibitory concentration index after 24 hrs in presence of fluconazole by two-dimensional broth microdilution checkboard assay; assay type: functional
Cryptococcus neoformans [11] = assay: Antifungal activity against Cryptococcus neoformans ATCC 32719 assessed as fractional inhibitory concentration index after 24 hrs in presence of fluconazole by two-dimensional broth microdilution checkboard assay; assay type: functional
Aspergillus flavus [12] = assay: Antifungal activity against Aspergillus flavus ATCC 16870 after 24 hrs in presence of fluconazole by two-dimensional broth microdilution checkboard assay; assay type: functional; conditions: ATCC 16870, 24 h
Cryptococcus neoformans [13] = assay: Antifungal activity against Cryptococcus neoformans ATCC 32719 after 24 hrs in presence of fluconazole by two-dimensional broth microdilution checkboard assay; assay type: functional; conditions: ATCC 32719, 24 h
Candida albicans [14] = assay: Antifungal activity against Candida albicans ATCC 76615 assessed as fluconazole MIC after 24 hrs in presence of fluconazole by two-dimensional broth microdilution checkboard assay; assay type: functional; conditions: ATCC 76615, 24 h
Candida albicans [15] = assay: Antifungal activity against Candida albicans ATCC 76615 after 24 hrs in presence of fluconazole by two-dimensional broth microdilution checkboard assay; assay type: functional; conditions: ATCC 76615, 24 h
Aspergillus fumigatus [16] = assay: Antifungal activity against Aspergillus fumigatus GIMCC 3.19 assessed as fluconazole MIC after 24 hrs in presence of fluconazole by two-dimensional broth microdilution checkboard assay; assay type: functional; conditions: GIMCC 3.19, 24 h
Aspergillus flavus [17] = assay: Antifungal activity against Aspergillus flavus ATCC 16870 assessed as fluconazole MIC after 24 hrs in presence of fluconazole by two-dimensional broth microdilution checkboard assay; assay type: functional; conditions: ATCC 16870, 24 h
Aspergillus fumigatus [18] = assay: Antifungal activity against Aspergillus fumigatus GIMCC 3.19 after 24 hrs in presence of fluconazole by two-dimensional broth microdilution checkboard assay; assay type: functional; conditions: GIMCC 3.19, 24 h
Cryptococcus neoformans [19] = assay: Antifungal activity against Cryptococcus neoformans ATCC 32719 assessed as fluconazole MIC after 24 hrs in presence of fluconazole by two-dimensional broth microdilution checkboard assay; assay type: functional; conditions: ATCC 32719, 24 h
[20] = Inhibition of Candida tropicalis ATCC 750 chitin synthase using UDP-GlcNAc as substrate

| Compound | MIC (Candida albicans [1]) [µM] | MIC (Cryptococcus neoformans [2]) [µM] | MIC (Pseudomonas aeruginosa) [µM] | MIC (Staphylococcus aureus [3]) [µM] | MIC (Escherichia coli) [µM] | MIC (Aspergillus flavus [4]) [µM] | MIC (Bacillus spizizenii) [µM] | MIC (Staphylococcus aureus [5]) [µM] | MIC (Candida albicans [6]) [µM] | MIC (Proteus vulgaris) [µM] | MIC (Aspergillus fumigatus [7]) [µM] | inhibition (Candida tropicalis) [%] | IC50 [20] [µM] | further results |
| --- | --- | --- | --- | --- | --- | --- | --- | --- | --- | --- | --- | --- | --- | --- |
| Cc1ccccc1NC(=O)[C@H](O)[C@@H](O)C(=O)N1CCC2(CCNC2=O)CC1 | 170 (≈ 63.8 µg/mL) | 680 (≈ 255 µg/mL) | 340 (≈ 128 µg/mL) | 680 (≈ 255 µg/mL) | 680 (≈ 255 µg/mL) | 1360 (≈ 511 µg/mL) | 340 (≈ 128 µg/mL) | 680 (≈ 255 µg/mL) | 1360 (≈ 511 µg/mL) | 680 (≈ 255 µg/mL) | 340 (≈ 128 µg/mL) | 49.8 |  |  |
| O=C(Nc1ccc(F)c(F)c1)[C@H](O)[C@@H](O)C(=O)N1CCC2(CCNC2=O)CC1 | 320 (≈ 127 µg/mL) | 80 (≈ 31.8 µg/mL) | 320 (≈ 127 µg/mL) | 1290 (≈ 513 µg/mL) | 640 (≈ 254 µg/mL) | 320 (≈ 127 µg/mL) | 640 (≈ 254 µg/mL) | 640 (≈ 254 µg/mL) | 640 (≈ 254 µg/mL) | 640 (≈ 254 µg/mL) | 1290 (≈ 513 µg/mL) | 36.7 |  |  |
| O=C(Nc1ccccc1F)[C@H](O)[C@@H](O)C(=O)N1CCC2(CCNC2=O)CC1 | 670 (≈ 254 µg/mL) | 670 (≈ 254 µg/mL) | 1350 (≈ 512 µg/mL) | 340 (≈ 129 µg/mL) | 670 (≈ 254 µg/mL) | 340 (≈ 129 µg/mL) | 670 (≈ 254 µg/mL) | 340 (≈ 129 µg/mL) | 340 (≈ 129 µg/mL) | 670 (≈ 254 µg/mL) | 670 (≈ 254 µg/mL) | 23.1 |  |  |
| COc1ccccc1NC(=O)[C@H](O)[C@@H](O)C(=O)N1CCC2(CCNC2=O)CC1 | 40 (≈ 15.7 µg/mL) | 330 (≈ 129 µg/mL) | 650 (≈ 254 µg/mL) | 330 (≈ 129 µg/mL) | 650 (≈ 254 µg/mL) | 650 (≈ 254 µg/mL) | 650 (≈ 254 µg/mL) | 1310 (≈ 513 µg/mL) | 650 (≈ 254 µg/mL) | 330 (≈ 129 µg/mL) | 330 (≈ 129 µg/mL) | 20.4 |  |  |
| O=C(Nc1cc(C(F)(F)F)cc(C(F)(F)F)c1)[C@H](O)[C@@H](O)C(=O)N1CCC2(CCNC2=O)CC1 | 260 (≈ 129 µg/mL) | 64 (≈ 31.8 µg/mL) | 510 (≈ 254 µg/mL) | 260 (≈ 129 µg/mL) | 60 (≈ 29.8 µg/mL) | 515 (≈ 256 µg/mL) | 510 (≈ 254 µg/mL) | 1030 (≈ 512 µg/mL) | 32 (≈ 15.9 µg/mL) | 1030 (≈ 512 µg/mL) | 515 (≈ 256 µg/mL) | 2.3 |  | fractional inhibitory concentration index (FICI) (Aspergillus fumigatus [8]): 0.8; fractional inhibitory concentration index (FICI) (Candida albicans [9]): 1; fractional inhibitory concentration index (FICI) (Aspergillus flavus [10]): 0.5; fractional inhibitory concentration index (FICI) (Cryptococcus neoformans [11]): 3; MIC (Aspergillus flavus [12]): 129 µM; MIC (Cryptococcus neoformans [13]): 129 µM; MIC (Candida albicans [14]): 26 µM; MIC (Candida albicans [15]): 16 µM; MIC (Aspergillus fumigatus [16]): 52 µM; MIC (Aspergillus flavus [17]): 52 µM; MIC (Aspergillus fumigatus [18]): 129 µM; MIC (Cryptococcus neoformans [19]): 52 µM |
| OC(Cn1cncn1)(Cn1cncn1)c1ccc(F)cc1F [FLUCONAZOLE] | 104 (≈ 31.9 µg/mL) | 52 (≈ 15.9 µg/mL) |  |  |  | 209 (≈ 64 µg/mL) |  |  | 52 (≈ 15.9 µg/mL) |  | 104 (≈ 31.9 µg/mL) |  |  |  |
| CN[C@@H]1[C@H](O[C@H]2[C@H](O[C@H]3[C@H](O)[C@@H](O)[C@H](N=C(N)N)[C@@H](O)[C@@H]3N=C(N)N)O[C@@H](C)[C@]2(O)C=O)O[C@@H](CO)[C@H](O)[C@H]1O [STREPTOMYCIN] |  |  | 7 (≈ 4.07 µg/mL) | 55 (≈ 32 µg/mL) | 14 (≈ 8.14 µg/mL) |  | 28 (≈ 16.3 µg/mL) | 28 (≈ 16.3 µg/mL) |  | 14 (≈ 8.14 µg/mL) |  |  |  |  |
| O=C(Nc1ccc(Cl)cc1Cl)[C@H](O)[C@@H](O)C(=O)N1CCC2(CCNC2=O)CC1 | 300 (≈ 129 µg/mL) | 590 (≈ 254 µg/mL) | 300 (≈ 129 µg/mL) | 150 (≈ 64.5 µg/mL) | 150 (≈ 64.5 µg/mL) | 300 (≈ 129 µg/mL) | 300 (≈ 129 µg/mL) | 590 (≈ 254 µg/mL) | 590 (≈ 254 µg/mL) | 150 (≈ 64.5 µg/mL) | 590 (≈ 254 µg/mL) | 82.8 | 130 |  |
| O=C(Nc1ccc(Br)cc1)[C@H](O)[C@@H](O)C(=O)N1CCC2(CCNC2=O)CC1 | 290 (≈ 128 µg/mL) | 1160 (≈ 511 µg/mL) | 290 (≈ 128 µg/mL) | 1160 (≈ 511 µg/mL) | 1160 (≈ 511 µg/mL) | 150 (≈ 66 µg/mL) | 580 (≈ 255 µg/mL) | 580 (≈ 255 µg/mL) | 290 (≈ 128 µg/mL) | 1160 (≈ 511 µg/mL) | 1160 (≈ 511 µg/mL) | 74.7 | 180 |  |
| NC(=O)OC[C@H](O)[C@@H](O)[C@H](N)C(=O)N[C@H](C(=O)O)[C@H]1O[C@@H](n2cc(CO)c(=O)[nH]c2=O)[C@H](O)[C@@H]1O [POLYOXIN B] | 129 (≈ 65.5 µg/mL) | 64 (≈ 32.5 µg/mL) |  |  |  | 32 (≈ 16.2 µg/mL) |  |  | 32 (≈ 16.2 µg/mL) |  | 32 (≈ 16.2 µg/mL) | 85 | 80 |  |
